In US20230053864A1, “Methods for Identifying Modulators of G Protein-Coupled Receptors” (University of Miami, priority 2019, published 2023):
Entries after “also recorded” stand apart in the source; their conditions may differ. One block for each compound: values may come before it.

What was measured:
ADRA2B = biological target: T1, ADRA2B (Homo sapiens, UniProt P18089); test: dCyFIRscreen profiling and titrations in yeast GPCR-Gα reporter strains; format: cell-based
T1 construct: expressed in transfected cells; host or cells: Saccharomyces cerevisiae BY4741-derived GPCR-Gα reporter strains, X-2 landing pad
T1 sequence (P18089 1-450): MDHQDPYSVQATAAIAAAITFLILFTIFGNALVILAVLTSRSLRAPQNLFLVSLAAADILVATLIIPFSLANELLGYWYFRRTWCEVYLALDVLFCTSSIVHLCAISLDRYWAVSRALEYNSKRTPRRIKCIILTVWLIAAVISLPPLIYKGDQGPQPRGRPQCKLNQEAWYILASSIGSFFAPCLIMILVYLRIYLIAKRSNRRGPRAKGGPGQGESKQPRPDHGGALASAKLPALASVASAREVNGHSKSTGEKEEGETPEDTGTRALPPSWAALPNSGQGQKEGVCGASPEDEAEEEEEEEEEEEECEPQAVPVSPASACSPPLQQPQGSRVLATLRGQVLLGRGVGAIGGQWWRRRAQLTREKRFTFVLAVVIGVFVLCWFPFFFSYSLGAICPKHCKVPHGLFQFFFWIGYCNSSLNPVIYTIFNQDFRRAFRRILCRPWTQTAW
Experimental: dCyFIRscreen protocol. […] Cells were normalized to an OD of 0.1 in SCD LoFo pH=7.0 using a Biomek NXp liquid-handling robot. […] 36 μL normalized cells were distributed to each well containing the appropriate 10× ligand/vehicle. Plates were sealed with a breathable cover (Diversified Biotech; BERM-2000) and incubated at 30° C. […] Absorbance readings were also collected after 18 hours using the same instrument (22 flashes/well, excitation filter: 600 nm).
Titration Analyses. All titration curves were analyzed using Prism software and the pharmacological fitting function log(agonist) vs. response—Variable slope (four parameters) (GraphPad Software, San Diego, USA).

S1PR2 = biological target: T2, S1PR2 (Homo sapiens, UniProt O95136); test: as above; format: cell-based
T2 construct: expressed in transfected cells; host or cells: Saccharomyces cerevisiae BY4741-derived GPCR-Gα reporter strains, X-2 landing pad
T2 sequence (O95136 whole entry): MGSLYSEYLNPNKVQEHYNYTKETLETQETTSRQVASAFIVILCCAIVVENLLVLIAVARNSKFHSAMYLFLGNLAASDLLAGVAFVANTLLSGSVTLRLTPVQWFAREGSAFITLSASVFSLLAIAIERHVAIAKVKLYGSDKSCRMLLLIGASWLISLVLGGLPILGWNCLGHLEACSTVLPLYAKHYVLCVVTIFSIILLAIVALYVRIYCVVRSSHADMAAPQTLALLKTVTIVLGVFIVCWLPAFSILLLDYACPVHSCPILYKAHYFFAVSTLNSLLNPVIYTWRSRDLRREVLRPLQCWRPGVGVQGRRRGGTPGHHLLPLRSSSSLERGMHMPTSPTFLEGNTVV
Experimental: (§1) Individual Gα reporter strains were grown in SCD LoFo pH=7.0 at 30° C. to an OD=1.0 in a 2.0 mL 96-well DeepWell block (Greiner; 780271-FD). Cells were normalized to an OD of 0.1 in SCD LoFo pH=7.0 using a Biomek NXp liquid-handling robot. 10× ligand/vehicle stocks were prepared (see Table 2) and 4 μL were distributed to each well of a 384-well plate (Greiner; 781096) in quadruplicate using a Biomek NXp. 36 μL normalized cells were distributed to each well containing the appropriate 10× ligand/vehicle. Plates were sealed with a breathable cover (Diversified Biotech; BERM-2000) and incubated at 30° C. Fluorescence readings were collected after 18 hours using a plate reader (ClarioStar, BMG LabTech, Offenburg, Germany) (bottom read, 10 flashes/well, excitation filter: 430-10 nm, dichroic filter: LP 458 nm, emission filter: 482-16 nm, gain=1300 (1500 for FIG. 1B.)). Absorbance readings were also collected after 18 hours using the same instrument (22 flashes/well, excitation filter: 600 nm).
(§2) All titration curves were analyzed using Prism software and the pharmacological fitting function log(agonist) vs. response—Variable slope (four parameters) (GraphPad Software, San Diego, USA).

S1PR1 = biological target: T3, S1PR1 (Homo sapiens, UniProt P21453); test: as above; format: cell-based
T3 construct: expressed in transfected cells; host or cells: Saccharomyces cerevisiae BY4741-derived GPCR-Gα reporter strains, X-2 landing pad
T3 sequence (P21453 whole entry): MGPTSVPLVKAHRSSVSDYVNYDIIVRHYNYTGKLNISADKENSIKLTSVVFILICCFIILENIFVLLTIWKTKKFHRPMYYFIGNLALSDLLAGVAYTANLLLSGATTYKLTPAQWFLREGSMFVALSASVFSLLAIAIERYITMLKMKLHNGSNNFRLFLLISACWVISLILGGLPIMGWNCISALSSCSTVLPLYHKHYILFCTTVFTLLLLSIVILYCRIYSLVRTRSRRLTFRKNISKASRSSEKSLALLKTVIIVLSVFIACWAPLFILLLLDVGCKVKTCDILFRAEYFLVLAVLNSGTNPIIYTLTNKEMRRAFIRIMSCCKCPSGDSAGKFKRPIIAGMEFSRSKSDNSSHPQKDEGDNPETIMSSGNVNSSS
Experimental: as §1, §2

HCAR3 = HCAR3 (Homo sapiens, UniProt P49019); settings: literature value; read-out: EC50 at HCAR3 observed by Colosimo et al.; cited from earlier work
Sequence of HCAR3 (P49019 whole entry): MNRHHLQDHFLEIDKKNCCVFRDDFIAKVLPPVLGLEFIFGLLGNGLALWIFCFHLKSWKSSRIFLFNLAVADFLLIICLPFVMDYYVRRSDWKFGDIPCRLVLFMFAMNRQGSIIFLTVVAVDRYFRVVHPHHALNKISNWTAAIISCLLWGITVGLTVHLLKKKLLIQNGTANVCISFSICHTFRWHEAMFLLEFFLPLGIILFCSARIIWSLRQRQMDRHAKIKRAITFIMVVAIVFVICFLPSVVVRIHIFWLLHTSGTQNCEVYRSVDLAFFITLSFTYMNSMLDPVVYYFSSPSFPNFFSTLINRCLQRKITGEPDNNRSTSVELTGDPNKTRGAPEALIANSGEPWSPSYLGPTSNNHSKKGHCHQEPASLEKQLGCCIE

MTNR1A = biological target: T4, MTNR1A (Homo sapiens, UniProt P48039); test: dCyFIRscreen profiling and titrations in yeast GPCR-Gα reporter strains; format: cell-based
T4 construct: expressed in transfected cells; host or cells: Saccharomyces cerevisiae BY4741-derived GPCR-Gα reporter strains, X-2 landing pad
T4 sequence (P48039 whole entry): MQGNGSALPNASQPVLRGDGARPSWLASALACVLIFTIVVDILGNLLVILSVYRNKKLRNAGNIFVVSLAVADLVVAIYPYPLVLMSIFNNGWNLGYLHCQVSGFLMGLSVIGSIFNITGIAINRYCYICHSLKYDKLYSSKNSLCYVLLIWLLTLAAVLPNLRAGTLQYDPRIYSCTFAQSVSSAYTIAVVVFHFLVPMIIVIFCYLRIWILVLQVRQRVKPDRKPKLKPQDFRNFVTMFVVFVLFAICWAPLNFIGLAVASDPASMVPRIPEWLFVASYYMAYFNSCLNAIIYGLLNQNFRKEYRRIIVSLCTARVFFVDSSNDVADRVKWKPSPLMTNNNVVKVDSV
Experimental: as §1, §2

HTR4 = biological target: T5, HTR4 (Homo sapiens, UniProt Q13639); test: as above; format: cell-based
T5 construct: expressed in transfected cells; host or cells: Saccharomyces cerevisiae BY4741-derived GPCR-Gα reporter strains, X-2 landing pad
T5 sequence (Q13639 whole entry): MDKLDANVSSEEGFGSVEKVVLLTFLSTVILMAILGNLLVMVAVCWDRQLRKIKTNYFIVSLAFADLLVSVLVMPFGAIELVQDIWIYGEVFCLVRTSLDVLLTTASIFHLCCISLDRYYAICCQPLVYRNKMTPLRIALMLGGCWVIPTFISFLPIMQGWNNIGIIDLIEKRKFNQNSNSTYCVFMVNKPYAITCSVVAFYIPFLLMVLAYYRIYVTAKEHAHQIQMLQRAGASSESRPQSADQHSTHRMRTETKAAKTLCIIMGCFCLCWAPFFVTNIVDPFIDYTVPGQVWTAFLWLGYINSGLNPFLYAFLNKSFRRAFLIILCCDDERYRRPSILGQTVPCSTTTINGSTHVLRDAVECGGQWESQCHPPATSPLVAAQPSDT
Experimental: dCyFIRscreen protocol. Individual Gα reporter strains were grown in SCD LoFo pH=7.0 at 30° C. to an OD=1.0 in a 2.0 mL 96-well DeepWell block (Greiner; 780271-FD). Cells were normalized to an OD of 0.1 in SCD LoFo pH=7.0 using a Biomek NXp liquid-handling robot. 10× ligand/vehicle stocks were prepared (see Table 2) and 4 μL were distributed to each well of a 384-well plate (Greiner; 781096) in quadruplicate using a Biomek NXp. 36 μL normalized cells were distributed to each well containing the appropriate 10× ligand/vehicle. Plates were sealed with a breathable cover (Diversified Biotech; BERM-2000) and incubated at 30° C. Fluorescence readings were collected after 18 hours using a plate reader (ClarioStar, BMG LabTech, Offenburg, Germany) (bottom read, 10 flashes/well, excitation filter: 430-10 nm, dichroic filter: LP 458 nm, emission filter: 482-16 nm, gain=1300 (1500 for FIG. 1B.)). Absorbance readings were also collected after 18 hours using the same instrument (22 flashes/well, excitation filter: 600 nm).
as §2

MTNR1B = biological target: T6, MTNR1B (Homo sapiens, UniProt P49286); test: dCyFIRscreen profiling in yeast GPCR-Gα reporter strains; format: cell-based
T6 construct: expressed in transfected cells; host or cells: Saccharomyces cerevisiae BY4741-derived GPCR-Gα reporter strains, X-2 landing pad
T6 sequence (P49286 1-362): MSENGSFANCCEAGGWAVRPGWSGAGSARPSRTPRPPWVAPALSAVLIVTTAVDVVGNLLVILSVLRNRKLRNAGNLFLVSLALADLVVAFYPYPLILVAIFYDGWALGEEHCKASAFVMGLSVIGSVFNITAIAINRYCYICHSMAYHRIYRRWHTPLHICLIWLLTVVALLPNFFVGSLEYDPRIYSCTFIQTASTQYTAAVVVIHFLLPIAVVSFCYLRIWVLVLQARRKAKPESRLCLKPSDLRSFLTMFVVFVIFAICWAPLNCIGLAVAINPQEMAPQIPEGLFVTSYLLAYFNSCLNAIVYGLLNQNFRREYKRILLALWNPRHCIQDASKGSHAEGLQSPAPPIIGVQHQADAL
Experimental: as §1, §2

[1] = tested on: 300-plex of GPCR-Gα reporter strains; test: dCyFIRplex FACS sorting of agonist-treated 300-plex; format: cell-based, Saccharomyces cerevisiae; settings: following agonist treatment
Experimental: dCyFIRplex protocol. […] 10× ligand/vehicle stocks were added to individual wells of a DeepWell block. The consolidated 300-plex or control strains were then added to each well and grown in the presence of ligand/vehicle overnight, so that each culture would reach an OD=4.0 before dCyFIRplex profiling. Samples were washed with sterile ddH2O and normalized to an OD=2.0 in SCD LoFo pH=7.0. Tracer cells were added to each sample at a 1:301 ratio. The final mixture was then transferred into a glass sample tube (USA Scientific; 1450-2810) and used for cell sorting. A BD FACSAria-II cell sorter was used for all dCyFIRplex experiments to assess mTq2 (405 nm excitation, 450/50 nm emission) and mRuby3 fluorescence (535 nm excitation, 610/20 nm emission). A gating strategy was set using the three control samples (DI P1 mTq2, individual Gα reporter strains lacking an integrated receptor, and DI P1 mRuby3) such that tracer cells and any cell expressing mTq2 was sorted into a 14 mL collection tube (USA Scientific; 1485-2810) containing 500 μL YPD. Samples treated with water or 500 μM adenosine (well-characterized using dCyFIRscreen, inexpensive, and water-soluble) were used to build a standard curve measuring total events in the mRuby3 and mTq2 positive gates. The standard curve from a water-treated 300-plex was used to determine the number of tracer events that would correspond to 15,000 events in the mTq2 gate for a water-treated 300-plex. Each sample was sorted until the standardized tracer count was reached. Sorted cells were enriched by outgrowth in 5 mL YPD at 30° C. with shaking (200 rpm) for 18 hours. Cells were harvested by centrifugation at 3,000×g for 5 min, and resuspended in 1 mL ddH2O. Cells were either processed immediately for qPCR deconvolution or frozen in 100 μL aliquots for storage at −20° C. The set of samples comparatively deconvoluted by qPCR and NanoString methods were derived from aliquots of the same dCyFIRplex experiments. […]

activity at ADRA2B in words (mode of action, potency range) (ADRA2B): micromolar agonist
Compound: NCCc1ccc(O)c(O)c1 [dopamine]

activity at S1PR1 in words (mode of action, potency range) (S1PR1): higher EC50 values compared to LPAR1
Compound: lysophosphatidic acid [LPA]
activity at S1PR2 in words (mode of action, potency range) (S1PR2): micromolar interactions; also recorded: higher EC50 values compared to LPAR1

Compound: O=C(O)CCc1ccccc1 [phenylpropanoic acid]
EC50 (HCAR3): 208 µM

Compound: NCCc1c[nH]c2ccccc12 [tryptamine]
activity at MTNR1A in words (mode of action, potency range) (MTNR1A): did not activate
activity at HTR4 in words (mode of action) (HTR4): did activate
EC50 at HTR4 (in words) (HTR4; titration): micromolar range
activity at ADRA2B in words (mode of action, potency range) (ADRA2B): did activate
EC50 at ADRA2B (in words) (ADRA2B; titration): micromolar range
activity at MTNR1B in words (mode of action) (MTNR1B): did not activate

Compound: C[C@H](N)C(=O)NCC(=O)N[C@H]1CSSC[C@@H](C(=O)O)NC(=O)[C@H](CO)NC(=O)[C@H]([C@@H](C)O)NC(=O)[C@H](Cc2ccccc2)NC(=O)[C@H]([C@@H](C)O)NC(=O)[C@H](CCCCN)NC(=O)[C@H](Cc2c[nH]c3ccccc23)NC(=O)[C@H](Cc2ccccc2)NC(=O)[C@H](Cc2ccccc2)NC(=O)[C@H](CC(N)=O)NC(=O)[C@H](CCCCN)NC1=O [SRIF-14, Somatostatin-14]
active cell pool, fraction of cell-sorting events for the 300-plex [1]: 1.5%

Compound: phenylethanolamine [PEOA]
activity at ADRA2B in words (mode of action, potency range) (ADRA2B): nanomolar

Compound: NCCc1ccccc1 [PEA, phenethylamine]
activity at ADRA2B in words (mode of action, potency range) (ADRA2B): micromolar

Compound: CCCCCCCCCCCCC/C=C/[C@@H](O)[C@@H](N)COP(=O)(O)O [sphingosine-1-phosphate]
active cell pool, fraction of cell-sorting events for the 300-plex [1]: 1.8%

activity at MTNR1A in words (mode of action, potency range) (MTNR1A): micromolar interactions
EC50 (MTNR1A; titration, yeast GPCR-Gα reporter strain): 60 µM
activity at ADRA2B in words (mode of action, potency range) (ADRA2B): micromolar interactions
activity at MTNR1B in words (mode of action) (MTNR1B): not find that serotonin agonized
Compound: NCCc1c[nH]c2ccc(O)cc12 [serotonin]
